Measurements published in patent US20030228627A1, “Assay for p53 function in cells” (priority 2002, published 2003).

How the values were obtained:
p21 promoter [1] = test: Chromatin immunoprecipitation (ChIP) in U2OS cells after DNA damage, p21 promoter; format: cell-based, human
Excerpt: To address this issue, a chromatin immunoprecipitation (ChIPs) technique was used to examine the temporal order of interaction of a variety of transcription proteins to individual p53-responsive promoters that control cell cycle arrest and apoptosis before and after DNA damage by two different damaging agents. […] For example, before damage the p21 promoter is already poised for transcription by containing bound RNA polymerase II, TATA binding protein (TBP), TFIIB, and TFIIH.
U2OS cells were grown to 50-60% confluency and treated either with UV-C or doxorubicin, (constant presence in media) for various times before crosslinking. After aspirating the media and washing with phosphate-buffered saline (PBS), cells were crosslinked with a 1% formaldehyde solution in 1×PBS for 15 min at room temperature. Crosslinking was stopped by addition of glycine to 125 mM final concentration. Monolayers were washed twice with cold PBS and harvested in radioimmunoprecipitation assay (RIPA) buffer [150 mM NaCl, 1% v/v Nonidet P-40, 0.5% w/v deoxycholate, 0.1% w/v SDS, 50 mM Tris pH 8, 5 mM EDTA, protease inhibitor cocktail, phosphatase inhibitors (20 mM NaF/0.2 mM sodium orthovanadate), deacetylase inhibitors (5 μM trichostatin A/5 mM sodium butyrate) and 0.5 mM PMSF] to generate a suspension of 10 million cells/ml. Suspensions were sonicated to generate DNA fragments below 500 bp and clarified by centrifugation for 10 min at 12000 g. Protein solutions were quantified for protein and DNA content and adjusted to 1 mg/ml of protein.
For immunoprecipitation, 1 mg of protein extract was pre-cleared for 2 hrs with 40 μl of a 50% slurry of 50:50 proteinA:proteinG sepharose before addition of indicated antibodies. Antibody (Ab) sources: DO1 (anti-total p53, Oncogene), S15P (anti-Serine 15-phospho-p53, Cell Signaling), AcH4 (Upstate), anti-TAF250 (R. Tjian), anti-TFIIB, -TBP, -RNApol II, -TFIIH (Santa Cruz), anti-serine 2-phospho-RNApol II and anti-serine 5-phospho-RNApol II (Covance). […]
DNA was precipitated and used as template in semi-quantitative PCR reactions. […]

[2] = test system: chromatin-assembled p21 promoter; test: In vitro transcription of the chromatin-assembled p21-LUC template with HeLa cell nuclear extract; format: biochemical, human
Description: The p21-LUC chromatin template was subjected to in vitro transcription reactions using HeLa cell nuclear extracts as a source of basal initiation components in the presence or absence of p53 and/or p300, as described in the protocol depicted in FIG. 1B. Both factors were added after chromatin assembly was complete (“post assembly”) and incubated with the template prior to in vitro transcription. Addition of p53 alone produced very modest transcriptional activation. […] Neither p53 nor p300 appreciably influenced transcription of naked DNA templates. Identical results were obtained using extracts from another cell line, erythroid K562. Thus, transcriptional activation from the chromatin-assembled p21 promoter in vitro requires p53, acting at a distance of at least 1.38 kb, in combination with a histone acetyl transferase cofactor, p300.
Chromatin was reconstituted using Drosophila embryonic extracts as described (Bulger, M. and Kadonaga, J. 1994 Methods Mol Genet 5:242-262). After assembly, the chromatin template (500 ng of DNA in 50 μl) was incubated with p53 and/or p300 (typically between 0.2-10 pmol of p53 and 0.2-0.5 pmol of p300), for 30 min at 27° C. For transcription, 20 μl of HeLa cell nuclear extract (typically 8 mg/ml) was added and incubated on ice for 10 min, then reactions proceeded as described (Kadam, S. et al. 2000 Genes & Dev 14:2441-2451). The purified RNA was analyzed by primer extension analysis with primers specific to luciferase and -globin gene (used as an internal control) sequences.

p21 promoter 5′ site = test: Electrophoretic Mobility Shift Assay (EMSA) of p53 binding to DNA containing the 5′ site of the p21 promoter; set-up: species or system human; details: compared with the acetylated form of wild-type p53
Description: Both probes were ^32P end-labeled using T4 polynucleotide kinase and further purified by 12%-15% polyacrylamide native gels.

p21 promoter [3] = test: DNase I footprinting of chromatin and DNA (p21-LUC plasmid); format: binding, human; details: DNase I footprinting on p21 promoter DNA or chromatin
Description: To analyze the mechanism by which p300 mediates p53-dependent activation, DNase I chromatin footprinting assays were performed to examine the occupancy of the 5′ and 3′ sites of the p21 promoter under conditions of transcriptional coactivation. Chromatin assembly and factor incubation steps were performed as described above, but the samples were split into three aliquots just before the in vitro transcription reaction. One aliquot was subjected to DNase I digestion, the second was transcribed, and the third was analyzed by Western blot to determine the acetylation status of p53.
DNA footprinting experiments were performed with chromatin-assembled p21 promoters after ATP depletion and purification by gel filtration using nonsaturating amounts of p53.
DNase I footprinting was done using three different templates: crude chromatin-assembled mixtures, CL4B-purified chromatin, and naked DNA. […] After incubation of the different templates with the proteins, samples were digested with 33 U/ml (crude chromatin), 1.5 U/ml (purified chromatin) or 0.1 U/ml (naked DNA) DNase I (Boehringer Mannheim) for 75 s at 25° C. Purified DNA fragments were analyzed by primer extension.

[4] = test system: nucleosomal histones of the chromatin-assembled p21 promoter; test: Chromatin HAT assay (3H-acetyl CoA incorporation); format: biochemical
Description: The quality of p21 promoter chromatin assembled in this purified system was determined by micrococcal nuclease digestion, as for embryo extracts, with similar results. The templates were then incubated with p53 and/or p300 in the presence of ^3H-acetyl CoA and the extent of acetylation monitored by incorporation of radioactivity when analyzed by SDS-PAGE and fluorography. […] A control reaction with equivalent amounts of free histones and p300 was included. Acetylation of p53 and autoacetylation of p300 was also detected.
Chromatin assembly was performed with recombinant dACF complex and NAP-1 histone chaperone as described (Ito, T. et al. 1999 Genes & Dev 13:1529-1539 and references therein). Chromatin assembly was assessed by micrococcal nuclease digestion and transcriptional repression. After assembly, proteins were added to the chromatin mixtures in the presence of 5 μM ^3H-acetyl CoA (ICN). After incubation for 1 hr at 30° C. with p53 and/or p300, reactions were stopped by boiling in SDS-PAGE loading buffer and analyzed on a 15% SDS-PAGE gel. The gel was fixed and treated with fluorography enhancing solutions (NEN Life Science). The gel was then dried and exposed to autoradiography.

[5] = test system: chromatin-assembled p21 promoter; test: In vitro chromatin immunoprecipitation with anti-acetyl-H4 antibodies; format: biochemical, human; details: p53 and p300
Description: To determine whether p53 influenced the localization of nucleosome acetylation on the p21 promoter by direct recruitment of p300, in vitro chromatin immunoprecipitation assays were performed. p21 promoters were assembled into chromatin using purified components and incubated with p53 and/or p300. Chromatin was digested with micrococcal nuclease and acetylated oligonucleosomes were immunoprecipitated using anti-acetyl-H4 antibodies. Specific p21 plasmid sequences in the immunoprecipitates were detected by PCR amplification or Southern blot. Identical results were obtained from both assays. […] The extent of increased acetylation in different regions of the p21-LUC plasmid varied from 3.4-fold near the 3′ p53 binding site to 1.4-fold in a distal region located 2 kb downstream of the proximal promoter. […] The following decreasing levels of acetylation were found: 3′ site>TATA box=5′ site>>+2 kb.
Chromatin immunoprecipitation analysis was performed using the anti-acetylated histone H4 antibody (Upstate Biotechnology) according to the manufacturer's recommendations and as previously described (Kundu, T. K. et al. 2000 Mol Cell 6:551-561) with some minor modifications, and as described in Example 2 (see below).

## COc1cccc2c1C(=O)c1c(O)c3c(c(O)c1C2=O)C[C@@](O)(C(=O)CO)C[C@@H]3O[C@H]1C[C@H](N)[C@H](O)[C@H](C)O1 [doxorubicin]
p21 promoter [1]
  binding of phosphorylated p53 to the p21 promoter: significantly increased
  recruitment of TAFII250 to the p21 promoter: no recruitment
  recruitment of TFIIB to the p21 promoter: active recruitment

## p53KR: mutant p53 in which lysines 370, 372, 373, 381, and 382 within the C-terminal domain were replaced by arginine
[2]; with p300
  ability to activate transcription compared with wild-type p53: coactivated by p300 to a similar extent as wild-type p53

## p53ΔC30: C-terminal deleted form of p53, lacking the last 30 amino acid residues
p21 promoter 5′ site
  binding activity in EMSA: strongly active
p21 promoter [3]
  binding to the 3′ site: no binding
  binding to the 5′ site: weaker binding

## p300: full-length human histidine-tagged p300, histone acetyl transferase cofactor, expressed in Sf9 cells
[4]; both p53 and p300 present
  acetylation of nucleosomal histones: strong acetylation
[4]; p300 alone
  acetylation of nucleosomal histones: very weak acetylation
[2]; coincubation with p53
  transcriptional activation of the chromatin template: strong synergistic de-repression
[2]; p300 alone
  transcriptional activation of the chromatin template: unable to achieve such activation
[5]; distal region 2 kb downstream of the proximal promoter
  extent of increased acetylation: 1.4 fold
[5]; near the 3′ p53 binding site
  extent of increased acetylation: 3.4 fold
